Assay results: patent US11781984B2, “Fluorescent method to quantify copper or platinum based on catalysis” (University of Pittsburgh—Of the Commonwealth System of …, priority 2018, dated 2023)
Counter-ions that a name gives are not always drawn.

Experiments:
[1] = Depropargylation of PPE with various metals and ligands (combinatorial screen); details: Cu^+ and Cu^2+ in the presence of ligand, 1.2 M pH 7.0 phosphate buffer/DMSO
Procedure: All fluorescence measurements were obtained using a Modulus II Microplate Multimode Reader. Fluorescence was measured after exciting samples with 490 nm light and emission was measured between 510-570 nm. All fluorescence measurements were obtained at room temperature. Metals and ligands were combinatorially screened in the presence of Propargyl Pittsburgh Green ether (PPE) to determine which metals and ligands facilitated the depropargylation reaction. Solid AgNO3 and Sr(NO3)2 were dissolved in 5% HNO3 (TraceMetal Grade) to a final concentration of 10 mM. AuCl3, CdCl2, CeCl3, COCl2, CuCl, CuCl2, […]7, FeSO4, FeCl3, HgCl2, MgCl2, KMnO4 NiCl2, Pb(OAc)4, Rh(OAc)2, RhCl3, RuCl3, and ZnCl2 were dissolved in 3% HCl (TraceMetal Grade) to a final concentration of 10 mM. Wilkinson's catalyst, as a source of Rh(I), was dissolved in DMSO to a final concentration of 5 mM. RuCl2(p-cymene) dimer was dissolved in DMSO to a final concentration of 5 mM (10 mM with respect to the monomer). Standard solutions of 1000 ppm Pt^2+ in 3% HCl and 1000 ppm Pd^2+ in 5% HNO3 were used. […] A mixture containing 1.2 M pH 7.0 phosphate buffer (177.2 mL), DMSO (19.42 mL), and 8.0 mM PPE (556 μL) was separated into 37 aliquots. […] These solutions containing the probe and ligand (180 μL), termed working solutions, were transferred to a black 96-well plate. The metal solutions were diluted to 10 μM using ultrapure water as the diluent. […] To analyze the data, each working solution was normalized, with the no metal sample normalized to 1.

[2] = Distribution of copper between water and CHCl3 in the presence of DMAPPP; assay type: physicochemical; details: pH 7 buffer / CHCl3 biphasic system, DMAPPP present vs absent
Procedure: We questioned whether copper ions would be excreted from cells when bound to DMAPPP. As a model system, CuSO4 was suspended in a biphasic system (pH 7 buffer and CHCl3) in the presence or absence of DMAPPP. Three suspensions were prepared from these: 10 mM DMAPPP in CHCl3 (1.0 mL) and 5 mM CuSO4 in 1 mM phosphate pH 7.0 buffer (1.0 mL), CHCl3 (1.0 mL) and 5 mM CuSO4 in 1 mM phosphate pH 7.0 buffer (1.0 mL), and 10 mM DMAPPP in CHCl3 (1.0 mL) and 1 mM phosphate pH 7.0 buffer (1.0 mL). The suspensions were vortexed to ensure proper partitioning of the CuSO4 and DMAPPP. Aliquots of the aqueous and organic layers of each suspension (100 μL each) were then taken and evaporated. The residue following evaporation was resuspended in HBSS (100 μL).
The working solution was prepared by the addition of 50 mM pH 8.5 borate buffer (2.96 mL), EtOH (500 μL), 800 μM PPE in EtOH (100 μL), and 10 mM DMAPPP in DMSO (40 μL). The working solution (180 μL) was transferred to the wells of a black 96-well plate. The resuspended samples (20 μL) were then added to the wells and the fluorescence was measured.

[3] = Deallylation of APE with various metals and ligands (combinatorial screen); details: for facilitation of the deallylation of APE: ligand screen with APE
Procedure: In separate vials, 20-30 mg of each ligand was dissolved in DMSO containing 250 ppm butylated hydroxyl toluene (BHT) to a final concentration of 20 mM ligand. Working solutions containing the ligands were prepared by mixing 1.23 M pH 7 phosphate buffer (177.2 mL), DMSO (19.424 mL), and 8.0 mM APE in DMSO (556 μL). Aliquots of this mixture (4.944 mL) were placed into 15 mL conical tubes and 20 mM ligands and 250 ppm BHT in DMSO (55.5 μL) were added. […] Metals used in the experiments included AgNO3, AuCl3, CdCl2.2.5H2O, CeCsl3.3H2O, CoCl2.6H2O, […]7, CuCl, CuCl2.2H2O, FeSO4, FeCl3, HgCl2, MgCl2.6H2O, K2MnO4, NiCl2, Pb(OAc)2, RhCl(PPh3)3, Rh(Oac)2 dimer, […] (45.5% Rh), dichloro(p-cymene)ruthenium(II), RuCl3, Sr(NO3)2, and ZnCl2. In separate vials, 10 mM metal solutions were prepared by mixing 5-20 mg of the listed metals with dilute acid; all metals were dissolved in 3% HCl (TraceMetal Grade), with the exception of AgNO3, Sr(NO3)3, RhCl(PPh3)3, and dichloro(p-cymene)ruthenium(II). AgNO3 and Sr(NO3)3 were dissolved in 5% HNO3 (TraceMetal Grade); RhCl(PPh3)3 and dichloro(p-cymene)ruthenium(II) were dissolved in DMSO and the working solutions were adjusted to account for the solvent. The metal solutions were then diluted to 100 μM in 3% HCl or 5% HNO3 (TraceMetal Grade) or DMSO. […] For Pd, the 9.4 mM standard (21 μL) was added to 5% HNO3 (1.98 mL, TraceMetal Grade). For Pt, the 5.1 mM standard (39 μL) was added to 3% HCl (1.96 mL, TraceMetal Grade). To perform the assay, 10 μM metal solutions (20 μL) were added to the prepared working solutions (180 μL). The fluorescence was measured immediately and again after allowing the reaction to proceed for 1 h and 2 h at 25° C.

[4] = Selectivity of optimized APE/TFPP method for platinum over palladium; details: optimized salts, pH and TFPP concentration; 10 μM metals, 20 μM APE, 200 μM TFPP, pH 7.8
Procedure: FIG. 21: Relative reactivities of metals (10 μM) to APE with TFPP. 20 μM APE, 200 μM TFPP, pH 7.8, 25° C., 10 min, n=3.
Increased temperatures accelerated the deallylation, opening an avenue for even lower detection limits if necessary.

[5] = Reactivity of strongly-ligated platinum drugs with APE and TFPP; details: 10 μM drug, 45° C., 1 h
Procedure: We incubated carboplatin and oxaliplatin with APE and TFPP. […] Carboplatin and oxaliplatin were dissolved in DMSO. The solutions were diluted to a concentration of 100 μM in DMSO. 100 μM platinum drugs in DMSO or water (20 μL) were transferred to the wells of a black 96-well plate. The working solution was prepared by the addition of 1.2 M phosphate pH 7.8 buffer (17.60 mL), DMSO (1.43 mL), 800 μM APE in DMSO (550 μL), and 40 mM TFPP in 250 ppm BHT in DMSO (220 μL). The working solution (180 μL) was then transferred to the wells and the initial fluorescence was measured. The plate was then covered and allowed to incubate in a 45° C. oven for 1 h before the fluorescence was measured again.

[6] = Reactivity of platinum drugs after pre-incubation with LiCl or NaCl; details: 10 μM drug, 50 mM LiCl or NaCl, 20 μM APE, 400 μM TFPP, 25° C., 100 min
Procedure: We pre-incubated the drugs with either LiCl or NaCl before adding APE and TFPP.0 or 100 μM cisplatin, carboplatin, or oxaliplatin in DMSO (100 μL) were added to centrifuge tubes. To these tubes, 0 or 1 M LiCl or NaCl in water (100 μL) was added. The solutions were then allowed to incubate at room temperature for 4 h. The working solution was made by the addition of 1.2 M phosphate pH 7.8 buffer (8.86 mL), DMSO (721 μL), 800 μM APE in DMSO (278 μL), and 20 mM TFPP in 250 ppm BHT in DMSO (111 μL). The working solution (180 μL) was then transferred to the wells of a black 96-well plate. The platinum drugs (20 μL) were then transferred to the wells and the fluorescence was measured every 5 min for 100 min.

[7] = Detection of platinum in different oxidation states (APE/TFPP); details: APE and TFPP, 25° C.
Procedure: To determine whether our method depends on the oxidation state of platinum, we incubated the solution of APE and TFPP with a platinum(II) standard, K2PtCl4, K2PtCl6, or cisplatin for 10 min. Cisplatin (6.1 mg; 20 μmol) was dissolved in DMSO and diluted to a concentration of 10 μM. K2PtCl4 (5.6 mg; 13 μmol) and K2PtCl6 (6.8 mg; 14 μmol) were dissolved in water to a concentration of 10 μM. The Pt standard was diluted with ultrapure water to a concentration of 10 μM. The working solution was prepared by adding 1.2 M pH 7 phosphate buffer (8.86 mL), 800 μM APE in DMSO (278 μL), 20 mM TFPP and 250 ppm BHT in DMSO (111 μL), and DMSO (721 μL) in a 15-mL conical tube. The working solution (180 μL) and the Pt solutions (20 μL) were transferred in this order to black round-bottom 96-well plates. The reaction mixture was incubated at 25° C. for 1 h before the fluorescence was measured and reported. Average values and standard deviations are shown in FIG. 23 and “no Pt” is normalized to 1.

HeLa cells = assay: Fluorescence imaging of platinum in live HeLa cells; assay type: cell-based; details: 1 μM APE, 200 μM TFPP, 1 mM K2PtCl4, 20 min
Procedure: We then applied this method for cellular imaging. HeLa cells were seeded in 35-mm dishes and were incubated overnight in an incubator (37° C., 5% CO2 atmosphere) in DMEM supplemented with 10% bovine calf serum and 1% penicillin/streptomycin. Cells were loaded with APE and TFPP to a final concentration of 1 μM and 200 μM, respectively, in 1% DMSO in DMEM for 20 min. Following this, cells were washed twice with ˜2 mL HBSS. HBSS was used as the imaging medium. Brightfield images were taken, as well as the initial fluorescence image. Immediately after taking the first fluorescence image, a solution of K2PtCl4 in PBS was added to a final concentration of 1 mM.
Cellular images were taken using an Olympus IX81 microscope with a 10× objective. Brightfield images were taken using a 3 ms exposure. Fluorescence images were taken as a time series, with an image taken every 30 s for 20 min, using an 850 ms exposure. Images were processed using ImageJ software; background fluorescence was removed from the fluorescence images using a rolling ball radius of 50.0 pixels.

[8] = Pt^2+ and APE in the presence of ligand

**Q.** Which “fluorescence signals (depropargylation of PPE)” value (from here on “fluorescence signals”) [1] does the source give for `O=S(=O)([O-])c1cccc(P(c2ccccc2)c2ccccc2)c1.[Na+]` [Compound 2, 3-(diphenylphosphino)bezenesulfonic acid sodium salt] here?
**A.** significantly increased the fluorescence signals

**Q.** For `CN(C)c1ccc(P(c2ccccc2)c2ccccc2)cc1` [Compound 9, 4-(dimethylamino)phenyl-diphenylphosphine], which “copper concentration in the organic phase” value [2] is on record?
**A.** did not increase

**Q.** What about the “fluorescence signals” value [1] of the same compound?
**A.** greatly increased the fluorescence signals

**Q.** With `O=S(=O)(O)c1cccc(P(c2cc(C(F)(F)F)cc(C(F)(F)F)c2)c2cccc(S(=O)(=O)O)c2)c1` [Compound 12, bis(3-sulfonatophenyl)(3,5-di-trifluoromethylphenyl)phosphine disodium salt] as the compound, how does the “facilitation of the deallylation of APE” value [3] read?
**A.** facilitated the deallylation

**Q.** With `Fc1ccc(P(c2ccc(F)cc2)c2ccc(F)cc2)cc1` [Compound 13, tris(4-fluorophenyl)phosphine] as the compound, how does the “rate relative to previously reported Pt-Ph3P catalysis” value ([3]; 200 μM TFPP) read?
**A.** 4 times

**Q.** And the “fluorescence signal relative to background signal” value [3, 8]?
**A.** 40 fold

**Q.** What about the “fluorescence signal relative to the corresponding signal from Pd^2+” value [3, 8] of the same compound?
**A.** 10 fold

**Q.** And the “facilitation of the deallylation of APE” value [3]?
**A.** facilitated the deallylation

**Q.** And the “selectivity for platinum over palladium” value [4]?
**A.** 14 times

**Q.** With `COc1ccc(P(c2ccc(OC)cc2)c2ccc(OC)cc2)cc1` [Compound 15, tris(4-methoxyphenyl)phosphine] as the compound, how does the “facilitation of the deallylation of APE” value [3] read?
**A.** did not facilitate the deallylation

**Q.** What about the “fluorescence signals” value [1] of the same compound?
**A.** significantly increased the fluorescence signals

**Q.** For `Cc1ccc(P(c2ccc(C)cc2)c2ccc(C)cc2)cc1` [Compound 18, tri-p-tolylphosphine], which “facilitation of the deallylation of APE” value [3] is on record?
**A.** facilitated the deallylation

**Q.** And the “fluorescence signals” value [1]?
**A.** significantly increased the fluorescence signals

**Q.** With `FC(F)(F)c1ccc(P(c2ccc(C(F)(F)F)cc2)c2ccc(C(F)(F)F)cc2)cc1` [Compound 19, tris(4-trifluoromethylphenyl)phosphine] as the compound, how does the “facilitation of the deallylation of APE” value [3] read?
**A.** did not facilitate the deallylation

**Q.** For `c1ccc(P(c2ccccc2)c2ccccc2)cc1` [Compound 34, triphenylphosphine], which “fluorescence signals” value [1] is on record?
**A.** significantly increased the fluorescence signals

**Q.** For `N.N.O=C([O-])C1(C(=O)[O-])CCC1.[Pt+2]` [carboplatin], which “reaction with APE and TFPP compared to no platinum” value [5] is on record?
**A.** little reaction

**Q.** What about the “effect of pre-incubation with LiCl or NaCl on detection” value [6] of the same compound?
**A.** increased fluorescence

**Q.** Which results are given for `N.N.[Cl][Pt][Cl]` [cisplatin]?
**A.** reactivity of platinum species (fluorescence signal) [7]: exhibited reactivity, although it was lower than the inorganic species; effect of pre-incubation with LiCl or NaCl on detection [6]: did not improve the detection

**Q.** For `O=C1[O][Pt]2([NH][C@@H]3CCCC[C@H]3[NH]2)[O]C1=O` [oxaliplatin], which “reaction with APE and TFPP compared to no platinum” value [5] is on record?
**A.** little reaction

**Q.** What about the “effect of pre-incubation with LiCl or NaCl on detection” value [6] of the same compound?
**A.** did not improve the detection

**Q.** For allyl Pittsburgh Green ether [APE], which “increase of fluorescence intensity in cells” value (HeLa cells) is on record?
**A.** 1.5 fold
